Test results taken from US7098219B2, “Inhibitors of cellular efflux pumps of microbes” (Wockhart Limited, priority 2000, dated 2006).

What was measured:
[1] = tested on: Mef Efflux Pump of Streptococcus pneumoniae 3514 and Streptococcus pyogenes 26-00; assay: Two plate diffusion assay for macrolide (Mef) efflux pump inhibitors, azithromycin plate versus control plate; format: cell-based; conditions: zone of inhibition in antibiotic plate (method: azithromycin 0.5 mcg/ml; footnote: levofloxacin) minus water control plate; strain not given
[2] = tested on: Staphylococcus aureus 1199 B NorA+; format: cell-based; conditions: combination with ciprofloxacin, broth microdilution checkerboard, 35° C. 20 hours; FIC index ≦0.5 synergistic, 0.5–2.0 additive, >2.0 antagonistic
Source text: Testing method for inhibition of the efflux pump of Staphylococcus aureus 1199B NorA^+
[…]. Victor Lorian, Md., Fourth edition 1996, pp 333–338).
In short, the assay involves broth microdilution method performed as recommended by the National Committee for Clinical Laboratory Standards (NCCLS) 1997 (Methods for Dilution of Antimicrobial Susceptibility Tests for Bacteria that Grow Aerobically, Fourth edition; Approved Standard, NCCLS document M7-A4, vol. 17, No. 2). The test organism used for the assay is Staphylococcus aureus 1199 B NorA^+.
[…]. Stock solutions of the efflux pump inhibitors tested are prepared in dimethyl sulfoxide (DMSO) at a final concentration of 5 mg/ml. Stock solutions are further diluted in Mueller Hinton Broth as per the need of the assay. Ciprofloxacin is dissolved in water.
The checkerboard assay is performed in microtiter plates. […] The efflux pump inhibitor is diluted in the Y-axis, each row containing an equal concentration of efflux pump inhibitor. The result of these manipulations is that each well of the microtiter plate contains a unique combination of concentrations of the two agents. Bacterial inoculum is added at 5×10^5 CFU/ml. Microtiter plates are incubated at 35° C. for 20 hours. Reading is done by visibly noting turbidity and confirmed using a microtiter plate reader (Molecular Devices). The FIC index is calculated as
(A) is the concentration of the experimental efflux pump inhibitor in the well that is the lowest inhibitory concentration in the Y-axis. (MICA) is the MIC of Staphylococcus aureus to experimental efflux pump inhibitor alone. FICA is the fractional inhibitory concentration of an experimental efflux pump inhibitor. […] (Antimicrobial Combination In Antibiotics in Laboratory Medicine, Ed. Victor Lorian, Md., Fourth edition 1996, pp 333–338).

Q: How did the “Difference in Zone diameter Z1 (mm)” value [1] turn out when “1-Cyclopropyl-6-fluoro-8-methoxy-1,4-dihydro-7-{-4′-(t-butoxycarbonyl (L)-Ala-Ala)amino 3′,3′-dimethylpiperidin-1-yl}-4-oxo-quinoline-3-carboxylic acid [Example 34 (Mef)]” was run?
A: Its value is 8 mm.

Q: How did the “Difference in Zone diameter Z1 (mm)” value [1] turn out when `CC1CCc2c(N3CC[C@@H](O)[C@H](C)C3)ccc3c(=O)c(C(=O)O)cn1c23` (mixture of isomers) [Example 41 (Mef), (RS)-(±)-6,7-dihydro-8-(trans-4′-hydroxy-3′-methylpiperidin-1-yl)-5-methyl-1-oxo-1H,5H-benzo[i,j]quinolizine-2-carboxylic acid] was run?
A: The value was 10 mm.

Q: For `CC1CCc2c(N3CCC(O)C(C)(C)C3)ccc3c(=O)c(C(=O)O)cn1c23` (racemic) [Example 43 (Mef), (RS)-(±)-6,7-dihydro-8-(4′-hydroxy-3′,3′-dimethylpiperidin-1-yl)-5-methyl-1-oxo-1H,5H-benzo[i,j]quinolizine-2-carboxylic acid], which “Difference in Zone diameter Z1 (mm)” value [1] is on record?
A: The value was 10 mm.

Q: For `CNC1CCN(c2c(F)c(N)c3c(=O)c(C(=O)O)cn(C4CC4)c3c2OC)CC1(C)C` (stereo not shown) [Example 2 (Mef), 5-Amino-1-cyclopropyl-6-fluoro-8-methoxy-1,4-dihydro-7-{4′-(methylamino)-3′,3′-dimethylpiperidin-1-yl}-4-oxo-quinoline-3-carboxylic acid], which “Difference in Zone diameter Z1 (mm)” value [1] is on record?
A: The value was 8 mm.

Q: How did the “Difference in Zone diameter Z1 (mm)” value [1] turn out when `COc1c(N2CCC(N)C(C)(C)C2)c(F)cc2c(=O)c(C(=O)OC(C)C)cn(C3CC3)c12` (stereo not shown) [Example 3 (Mef), i-Propyl 1-cyclopropyl-6-fluoro-8-methoxy-1,4-dihydro-7-(4′-amino-3′,3′-dimethyl-piperidin-1-yl)-4-oxo-quinoline-3-carboxylate] was run?
A: Its value is 11 mm.

Q: For `CCCCOC(=O)c1cn(C2CC2)c2c(OC)c(N3CCC(N)C(C)(C)C3)c(F)cc2c1=O` (stereo not shown) [Example 4 (Mef), n-Butyl 1-cyclopropyl-6-fluoro-8-methoxy-1,4-dihydro-7-(4′-amino-3′,3′-dimethyl-piperidin-1-yl)-4-oxo-quinoline-3-carboxylate], which “Difference in Zone diameter Z1 (mm)” value [1] is on record?
A: The value was 11 mm.

Q: `CCOC(=O)COC(=O)c1cn(C2CC2)c2c(OC)c(N3CCC(N)C(C)(C)C3)c(F)cc2c1=O` (stereo not shown) [Example 5 (Mef), Ethoxycarbony methyl 1-Cyclopropyl-6-fluoro-8-methoxy-1,4-dihydro-7-(4′-amino-3′,3′-dimethylpiperidin-1-yl)-4-oxo-quinoline-3-carboxylate] was tested. Which “Difference in Zone diameter Z1 (mm)” value [1] did it give?
A: Its value is 13 mm.

Q: `COc1c(N2CCC(NC(=O)OC(C)(C)C)C(C)(C)C2)c(F)cc2c(=O)c(C(=O)OCc3ccccc3)cn(C3CC3)c12` (stereo not shown) [Example 6 (Mef)] was tested. Which “Difference in Zone diameter Z1 (mm)” value [1] did it give?
A: The value was 13 mm.

Q: How did the “Difference in Zone diameter Z1 (mm)” value [1] turn out when `COc1c(N2CCC(NC(=O)[C@H](C)NC(=O)OC(C)(C)C)C(C)(C)C2)c(F)cc2c(=O)c(C(=O)O)cn(C3CC3)c12.Cl` (stereo partly drawn) [Example 7 (Mef), 1-Cyclopropyl-6-fluoro-8-methoxy-1,4-dihydro-7-{4′-N-(t-butoxycarbonyl-L-alanyl)-amino-3′,3′-dimethylpiperidin-1-yl}-4-oxo-quinoline-3-carboxylic acid hydrochloride] was run?
A: The value was 7 mm.

Q: Which “Difference in Zone diameter Z1 (mm)” value [1] does the source give for `COc1c(N2CCC(NC(=O)[C@H](C)N)C(C)(C)C2)c(F)cc2c(=O)c(C(=O)O)cn(C3CC3)c12.Cl` (stereo partly shown) [Example 8 (Mef), 1-Cyclopropyl-6-fluoro-8-methoxy-1,4-dihydro-7-(4′-(L)-alaninylamino-3′,3′-dimethylpiperidin-1-yl)-4-oxo-quinoline-3-carboxylic acid hydrochloride] here?
A: The value was 10 mm.

Q: With `COc1c(N2CCC(NC(=O)[C@@H](NC(=O)OC(C)(C)C)C(C)C)C(C)(C)C2)c(F)cc2c(=O)c(C(=O)O)cn(C3CC3)c12` (stereo partly drawn) [Example 9 (Mef), 1-Cyclopropyl-6-fluoro-8-methoxy-1,4-dihydro-7-(3′,3′-dimethyl-4′-N-(t-butoxycarbonyl-L-valyl)-aminopiperidin-1-yl}-4-oxo-quinoline-3-carboxylic acid] as the molecule, how does the “Difference in Zone diameter Z1 (mm)” value [1] read?
A: The value was 5 mm.

Q: With `COc1c(N2CCC(NC(=O)[C@@H](N)C(C)C)C(C)(C)C2)c(F)cc2c(=O)c(C(=O)O)cn(C3CC3)c12.Cl` (stereo partly drawn) [Example 10 (Mef), 1-Cyclopropyl-6-fluoro-8-methoxy-1,4-dihydro-7-(3′,3′-dimethyl-4′-L-valinylaminopiperidin-1-yl}-4-oxo-quinoline-3-carboxylic acid hydrochloride] as the molecule, how does the “Difference in Zone diameter Z1 (mm)” value [1] read?
A: Its value is 8 mm.

Q: How did the “Difference in Zone diameter Z1 (mm)” value [1] turn out when `COc1c(N2CCC(NC(=O)[C@@H](N)CC(=O)O)C(C)(C)C2)c(F)cc2c(=O)c(C(=O)O)cn(C3CC3)c12.Cl` (stereo partly shown) [Example 11 (Mef), 1-Cyclopropyl-6-fluoro-8-methoxy-1,4-dihydro-7-(4′-(L)-aspartylamino-3′,3′-dimethylpiperidin-1-yl}-4-oxo-quinoline-3-carboxylic acid hydrochloride] was run?
A: Its value is 6 mm.

Q: Which “Difference in Zone diameter Z1 (mm)” value [1] does the source give for `CCNC1CCN(c2c(F)cc3c(=O)c(C(=O)O)cn(CC)c3c2F)CC1` [Example 12 (Mef), 1-Ethyl-6,8-difluoro-1,4-dihydro-7-(4′-ethylaminouiperidin-1′-yl)-4-oxo-quinoline-3-carboxylic acid] here?
A: The value was 18 mm.

Q: How did the “Difference in Zone diameter Z1 (mm)” value [1] turn out when `CC1CN(c2c(F)c(N)c3c(=O)c(C(=O)O)cn(C4CC4)c3c2F)CCC1N` (stereo not shown) [Example 13 (Mef), 5-Amino-1-cyclopropyl-6,8-difluoro-1,4-dihydro-7-(4′-amino-3′-methylpiperidin-1-yl)-4-oxo-quinoline-3-carboxylic acid] was run?
A: The value was 20 mm.

Q: With `Nc1c(F)c(NC2CN3CCC2CC3)c(F)c2c1c(=O)c(C(=O)O)cn2C1CC1` (stereo not shown) [Example 14 (Mef), 5-Amino-1-cyclopropyl-6,8-difluoro-1,4-dihydro-7-(3′-quinuclidinyl-3′-yl-amino)-4-oxo-quinoline-3-carboxylic acid] as the molecule, how does the “Difference in Zone diameter Z1 (mm)” value [1] read?
A: Its value is 8 mm.

Q: Which “Difference in Zone diameter Z1 (mm)” value [1] does the source give for `Nc1c(F)c(C2(N)C3CN(Cc4ccccc4)CC32)c(F)c2c1c(=O)c(C(=O)O)cn2C1CC1` (stereo not shown) [Example 15 (Mef), 5-Amino-1-cyclopropyl-6,8-difluoro-1,4-dihydro-7-{(1∝,5∝,6∝)-6-amino-N-benzyl-3-azabicyclo[3.1.0]hex-6-yl}-4-oxo-quinoline-3-carboxylic acid] here?
A: Its value is 14 mm.

Q: Which “Difference in Zone diameter Z1 (mm)” value [1] does the source give for `CN1CCN(c2cc3c(cc2F)c(=O)c(C(=O)O)cn3-c2cccc(F)c2)CC1` [Example 16 (Mef), 1-(3′-Fluorophenyl)-6-fluoro-1,4-dihydro-7-(4′-methylpiperazin-1′-yl)-4-oxo-quinoline-3-carboxylic acid] here?
A: The value was 10 mm.

Q: `CCNC1CCN(c2cc3c(cc2F)c(=O)c(C(=O)O)cn3-c2ccc(F)cc2F)CC1` [Example 17 (Mef), 1-(2′,4′-Difluorophenyl)-6-fluoro-1,4-dihydro-7-(4′-ethylaminopiperidin-1′-yl)-4-oxo-quinoline-3-carboxylic acid] was tested. Which “Difference in Zone diameter Z1 (mm)” value [1] did it give?
A: The value was 9 mm.

Q: For `C[C@H]1CCc2c(N3CCC(C(N)=O)CC3)c(F)cc3c(=O)c(C(=O)O)cn1c23` [Example 53 (NorA), (S)-(−)-9-Fluoro-6,7-dihydro-8-(4′-carboxamidopineridin-1-yl)-5-methyl-1-oxo-1H,5H-benzo[i,j]quinolizine-2-carboxylic acid], which “FIC INDEX” value [2] is on record?
A: The value was 0.192.

Q: With `C[C@H]1CCc2c(N3CCC(O)C(C)(C)C3)c(F)cc3c(=O)c(C(=O)O)cn1c23` (stereo partly drawn) [Example 55 (NorA), S-(−)-9-Fluoro-6,7-dihydro-8-(4′-hydroxy-3′,3′-dimethylpiperidin-1-yl)-5-methyl-1-oxo-1H,5H-benzo[i,j]quinolizine-2-carboxylic acid] as the molecule, how does the “FIC INDEX” value [2] read?
A: The value was 0.378.

Q: With `C[C@H]1CCc2c(N3CCC(O)CC3)c(F)cc3c(=O)c(C(=O)OC4CCN(C)CC4)cn1c23` [Example 56 (NorA), (S)-(−)-N-methylpiperidino-9-fluoro-6,7-dihydro-8-(4′-hydroxypiperidin-1-yl)-5-methyl-1-oxo-1H,5H-benzo[i,j]quinolizine-2-carboxylic acid] as the molecule, how does the “FIC INDEX” value [2] read?
A: Its value is 0.180.

Q: For `CCOC(=O)COC(=O)c1cn2c3c(c(N4CCC(O)CC4)c(F)cc3c1=O)CC[C@H]2C` [Example 57 (NorA), Ethoxy carbonylmethyl (R)-(+)-9-fluoro-6,7-dihydro-8-(4′-hydroxypiperidin-1-yl)-5-methyl-1-oxo-1H,5H-benzo[i,j]quinolizine-2-carboyxlate], which “FIC INDEX” value [2] is on record?
A: The value was 0.400.

Q: For “(S)-(−)-9-Fluoro-6,7-dihydro-8-(4′-hydroxypiperidin-1-yl)-5-methyl-1-oxo-1H,5H-benzo[i,j]quinolizine-2-carboxylic acid L-aryinine salt [Example 54 (NorA)]”, which “FIC INDEX” value [2] is on record?
A: The value was 0.314.

Q: For “N-3-azabycyclo{7-(1-(2,4-difluorophenyl)-6-fluoro-1,4-dihydro-4-oxo-1,8-naphthyridine-3-carboxylic acid)}-[1∝,5∝,6∝]-N-6-amino-{7-1-(2,4-difluorophenyl)-6-fluoro-1,4-dihydro-4-oxo-1,8-naphthyridine-3-carboxylic acid)}-3.1.0]hexane [Bis compound 9]”, which “FIC INDEX” value [2] is on record?
A: The value was 0.314.
